Assay results taken from PMC11992225, “Antibacterial compounds against non-growing and intracellular bacteria” (npj Antimicrobials and Resistance, 2025).
Values after ≈ are worked out from the molar mass of the structure shown. Values joined by “and” are separate entries in the source; they are usually repeats but may differ in a detail not shown here. Identical values can stand only once. Like-named read-outs stand apart in the source and are kept apart here.

Experiments:
[1] = test system: P. aeruginosa DSM1117; assay: MIC, standard microdilution assay, growing P. aeruginosa; format: cell-based, Pseudomonas aeruginosa; conditions: P. aeruginosa; for MIC: Pseudomonas aeruginosa, DSM1117
How it was run: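 MICs come from microdilution in CA-MHB/40 mM HEPES pH 7.4 for the UPEC, Pseudomonas and Staphylococcus strains, and in TSB for Shigella. UPEC also tested in LPM/30 mM MES pH 5.5.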

[2] = test system: non-growing UPEC CFT073; assay: Dilution-regrowth assay (screen, hit validation, dose-response) on stationary-phase UPEC; format: cell-based, Escherichia coli; conditions: Escherichia coli, E. coli, regrowth delay of non-growing bacteria, 24 h treatment, OD600 6 h after 2500-fold dilution, read-out: EC50
How it was run: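 Regrowth (OD600 after 6 h, 37 °C) of diluted non-growing CFT073, following 24 h compound treatment of 24 h stationary cultures, defines activity relative to untreated control. Screen at 20 µM, validation at 20, 10, 5 µM (duplicates), dose–response in three biological replicates fitted by five-parameter logistic.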

[3] = test system: non-growing UPEC CFT073; assay: Dose-dependent killing analysis (CFU spot-plating) of stationary-phase UPEC; format: cell-based, Escherichia coli
How it was run: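 Killing assessed by CFU counts: overnight 37 °C LB agar spot plates (10 μl drops of 10-fold PBS dilutions) scored at the lowest dilution with distinct colonies. Samples were compound-treated non-growing UPEC CFT073, 200 μl per well. Performed as three biological replicates.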

[4] = test system: non-growing P. aeruginosa DSM1117; assay: Dose-dependent killing analysis (CFU spot-plating) of stationary-phase P. aeruginosa; format: cell-based, Pseudomonas aeruginosa; conditions: P. aeruginosa; for log10(CFU/ml) of treated nongrowing bacteria (single replicates): before treatment 8.887
How it was run: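 Viability by CFU: samples serially diluted 10-fold in PBS, spotted on LB agar, grown overnight at 37 °C, and colonies counted at the lowest resolvable dilution. Non-growing P. aeruginosa DSM1117 had been dosed for 24 h in 1:4 CA-MHB (pH 7.4); three biological replicates.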

SMILES: N[C@@H]1[C@H]2CN(c3nc4c(cc3F)c(=O)c(C(=O)O)cn4-c3ccc(F)cc3F)C[C@@H]12 [Trovafloxacin]
- increase of MIC in diluted CA-MHB versus CA-MHB [1]: four
- MIC ([1]; 1:4 diluted CA-MHB pH 7.4, read-out: MIC (μM) 1:4 CA-MHB): 8 µM (≈ 3.33 µg/mL)
- MIC ([1]; CA-MHB pH 7.4, read-out: MIC (μM) CA-MHB): 2 µM (≈ 0.833 µg/mL)
- EC50 ([2]; LPM pH 5.5): 5.18 µM
- EC50 ([2]; pH 7.4, 1:4 CA-MHB): 1.25 µM
- killing, average Δlog10(CFU/ml) ([3]; E. coli in 1:4 CA-MHB (pH 7.4), drug concentration 0.25): 0.343 log10(CFU/ml)
- log10(CFU/ml) of treated nongrowing bacteria (single replicates) ([3]; E. coli in 1:4 CA-MHB (pH 7.4), drug concentration 0.25, before treatment 8.977): 9.041 log10(CFU/ml) and 8.447 log10(CFU/ml) and 8.415 log10(CFU/ml)
- killing, average Δlog10(CFU/ml) ([3]; E. coli in 1:4 CA-MHB (pH 7.4), drug concentration 0.5): 0.539 log10(CFU/ml)
- log10(CFU/ml) of treated nongrowing bacteria (single replicates) ([3]; E. coli in 1:4 CA-MHB (pH 7.4), drug concentration 0.5, before treatment 8.977): 8.699 log10(CFU/ml) and 8.362 log10(CFU/ml) and 8.255 log10(CFU/ml)
- killing, average Δlog10(CFU/ml) ([3]; E. coli in 1:4 CA-MHB (pH 7.4), drug concentration 1): 0.839 log10(CFU/ml)
- log10(CFU/ml) of treated nongrowing bacteria (single replicates) ([3]; E. coli in 1:4 CA-MHB (pH 7.4), drug concentration 1, before treatment 8.977): 8.255 log10(CFU/ml) and 8.204 log10(CFU/ml) and 7.954 log10(CFU/ml)
- killing, average Δlog10(CFU/ml) ([3]; E. coli in 1:4 CA-MHB (pH 7.4), drug concentration 2.5): 1.866 log10(CFU/ml)
- log10(CFU/ml) of treated nongrowing bacteria (single replicates) ([3]; E. coli in 1:4 CA-MHB (pH 7.4), drug concentration 2.5, before treatment 8.977): 7.255 log10(CFU/ml) and 6.903 log10(CFU/ml) and 7.176 log10(CFU/ml)
- killing, average Δlog10(CFU/ml) ([3]; E. coli in 1:4 CA-MHB (pH 7.4), drug concentration 5): 2.103 log10(CFU/ml)
- log10(CFU/ml) of treated nongrowing bacteria (single replicates) ([3]; E. coli in 1:4 CA-MHB (pH 7.4), drug concentration 5, before treatment 8.977): 7.146 log10(CFU/ml) and 6.699 log10(CFU/ml) and 6.778 log10(CFU/ml)
- killing, average Δlog10(CFU/ml) ([3]; E. coli in 1:4 CA-MHB (pH 7.4), drug concentration 10): 2.608 log10(CFU/ml)
- log10(CFU/ml) of treated nongrowing bacteria (single replicates) ([3]; E. coli in 1:4 CA-MHB (pH 7.4), drug concentration 10, before treatment 8.977): 6.462 log10(CFU/ml) and 6.322 log10(CFU/ml) (2×)
- killing, average Δlog10(CFU/ml) ([3]; E. coli in LPM (pH 5.5), drug concentration 0.25): 0.094 log10(CFU/ml)
- log10(CFU/ml) of treated nongrowing bacteria (single replicates) ([3]; E. coli in LPM (pH 5.5), drug concentration 0.25, before treatment 7.350): 7.146 log10(CFU/ml) and 6.544 log10(CFU/ml) and 8.079 log10(CFU/ml)
- killing, average Δlog10(CFU/ml) ([3]; E. coli in LPM (pH 5.5), drug concentration 0.5): 0.009 log10(CFU/ml)
- log10(CFU/ml) of treated nongrowing bacteria (single replicates) ([3]; E. coli in LPM (pH 5.5), drug concentration 0.5, before treatment 7.350): 7.146 log10(CFU/ml) and 6.732 log10(CFU/ml) and 8.146 log10(CFU/ml)
- killing, average Δlog10(CFU/ml) ([3]; E. coli in LPM (pH 5.5), drug concentration 1): 0.00468 log10(CFU/ml)
- log10(CFU/ml) of treated nongrowing bacteria (single replicates) ([3]; E. coli in LPM (pH 5.5), drug concentration 1, before treatment 7.350): 7.255 log10(CFU/ml) and 6.740 log10(CFU/ml) and 8.041 log10(CFU/ml)
- killing, average Δlog10(CFU/ml) ([3]; E. coli in LPM (pH 5.5), drug concentration 2.5): 0.225 log10(CFU/ml)
- log10(CFU/ml) of treated nongrowing bacteria (single replicates) ([3]; E. coli in LPM (pH 5.5), drug concentration 2.5, before treatment 7.350): 7.230 log10(CFU/ml) and 6.447 log10(CFU/ml) and 7.699 log10(CFU/ml)
- killing, average Δlog10(CFU/ml) ([3]; E. coli in LPM (pH 5.5), drug concentration 5): 0.336 log10(CFU/ml)
- log10(CFU/ml) of treated nongrowing bacteria (single replicates) ([3]; E. coli in LPM (pH 5.5), drug concentration 5, before treatment 7.350): 6.699 log10(CFU/ml) and 6.763 log10(CFU/ml) and 7.580 log10(CFU/ml)
- killing, average Δlog10(CFU/ml) ([3]; E. coli in LPM (pH 5.5), drug concentration 10): 0.963 log10(CFU/ml)
- log10(CFU/ml) of treated nongrowing bacteria (single replicates) ([3]; E. coli in LPM (pH 5.5), drug concentration 10, before treatment 7.350): 6.146 log10(CFU/ml) and 6.415 log10(CFU/ml) and 6.602 log10(CFU/ml)
- killing, average Δlog10(CFU/ml) ([4]; drug concentration 0.1): 0.236 log10(CFU/ml)
- log10(CFU/ml) of treated nongrowing bacteria (single replicates) ([4]; drug concentration 0.1): 8.699 log10(CFU/ml) and 8.954 log10(CFU/ml) and 8.301 log10(CFU/ml)
- killing, average Δlog10(CFU/ml) ([4]; drug concentration 0.5): 0.717 log10(CFU/ml)
- log10(CFU/ml) of treated nongrowing bacteria (single replicates) ([4]; drug concentration 0.5): 7.954 log10(CFU/ml) (2×) and 8.602 log10(CFU/ml)
- killing, average Δlog10(CFU/ml) ([4]; drug concentration 2.5): 1.077 log10(CFU/ml)
- log10(CFU/ml) of treated nongrowing bacteria (single replicates) ([4]; drug concentration 2.5): 7.778 log10(CFU/ml) and 7.954 log10(CFU/ml) and 7.699 log10(CFU/ml)
- killing, average Δlog10(CFU/ml) ([4]; drug concentration 10): 1.687 log10(CFU/ml)
- log10(CFU/ml) of treated nongrowing bacteria (single replicates) ([4]; drug concentration 10): 7.301 log10(CFU/ml) (2×) and 7.000 log10(CFU/ml)
